Key:
TGF-β signaling pathway = assay: Microarray and real-time RT-PCR gene expression after in vivo albumin with or without TGF-βR blockers; design: species or system rat; details: albumin alone, 24 hours
Experimental: All experimental procedures were approved by the ethical committees dealing with experiments on animals at Charité University Medicine, Berlin and Ben-Gurion University of the Negev, Beer-Sheva. The in vivo experiments were performed as previously described (ivens et al., 2007; Seiffert et al., 2004). Adult male Wistar rats were treated with artificial cerebrospinal fluid (aCSF, composition in mM: 129 NaCl, 21 NaHCO3, 1.25 NaH2PO4, 1.8 MgSO4, 1.6 CaCl2, 3 KCl, 10 glucose) supplemented with deoxycholic acid (DOC, 2 mM, Sigma-Aldrich, Steinheim, Germany), bovine serum albumin (BSA, 0.1 mM. Merck, Darmstadt, Germany) corresponding to 25% of serum albumin concentration, or with TGF-β1 (10 ng/ml, Peprotech, Rocky Hill, N.J.). Sham-operated animals (perfused with aCSF) served as controls. […]
Total RNA was isolated using the TRIzol reagent (Invitrogen. Carlsbad, Calif.) and prepared using the Affymetrix GeneChip one-cycle target labeling kit (Affymetrix, Santa Clara, Calif.). […] Pairwise Pearson correlation coefficients for the three treatments were determined with Excel (Microsoft Corp., Richmond, Wash.). […]
mRNA expression levels were determined by quantitative reverse transcriptase-PCR by real-time kinetic analysis with an iQ5 detection system (Bio-Rad, Hercules, Calif.). Real-time PCR data were analyzed using the PCR Miner program (Zhao and Fernald, 2005). […]

brain slices = assay: Field potentials during train stimulation in brain slices exposed to albumin in sACSF; assay type: cell-based, rat; details: for field potential duration (at ⅓ maximal amplitude), 1st stimulus / field potential duration (at ⅓ maximal amplitude), 5th stimulus: treated
Experimental: For electrophysiological experiments, rats were deeply anesthetized with isoflurane and then decapitated. Brains were quickly removed, and transverse hippocampal-cortical slices ([…] thick) were prepared using a vibratome (Campden Instruments, Loughborough, UK). Slices were maintained in a humidified, carbogenated (5% CO2 and 95% O2) gas atmosphere at 36±1° C. and perfused with ACSF in a standard interface chamber (Seiffert et al., 2004; Ivens et al., 2007). To mimic the altered ionic environment during BBB disruption, recordings were acquired in a serum-adapted electrolyte solution (sACSF; see Seiffert et al. 2004). sACSF was similar in composition to the ACSF except for different concentrations of MgSO4 (0.8 mM), CaCl2 (1.3 mM), KCl (5.7 mM) and glutamine (1 mM). “Treated” slices were incubated with sACSF containing 0.1 mM bovine serum albumin for 2 h before transfer to the perfusion chamber.
Electrophysiological recordings were obtained 6-10 h following perfusion with sACSF. Control slices were treated similarly, using sACSF without albumin. For extracellular recordings, glass microelectrodes (˜3 MΩ, 154 mM NaCl) were positioned in layer 4 of the neocortex. Slices were stimulated with brief (100 μs) pulses, by using bipolar stimulation electrodes placed at the border between white and gray matter in the same conical column. Trains of 50 stimuli were applied at 2, 5, 10, 20, 50 and 100 Hz, at 2.5× threshold stimulation intensity. […] Extracellular potassium concentrations ([K+]o) were measured with ion-sensitive microelectrodes (ISMEs; Lux and Neher, 1973: Jauch et al., 2002).
The simulation data presented above predicted maximal EPSP facilitation at 20 Hz when [K^+]o clearance is reduced and decreased facilitation (at 50-100 Hz) when the only change induced is glutamate accumulation in the synaptic cleft. Field potentials in response to stimulation at various frequencies in brain slices during “epileptogenesis” (exposure to albumin in sACSF) compared to controls (sACSF alone) were therefore measured.

[1] = 100 Hz stimulation, treated (n=4)

albumin: bovine serum albumin, used to induce epileptogenesis
NF-kappaB cascade, Jak-Stat cascade, and MAPKKK cascade expression (TGF-β signaling pathway): upregulated | stimulation-induced long-lasting epileptiform discharges, slices showing them (brain slices; 5 Hz stimulation): 2 of 4 | stimulation-induced long-lasting epileptiform discharges, slices showing them (brain slices; 10-Hz stimulation): 4 of 4 | field potential duration (at ⅓ maximal amplitude), 1st stimulus (brain slices; 10 Hz): 6.5 ± 0.7 ms | field potential duration (at ⅓ maximal amplitude), 5th stimulus (brain slices; 10 Hz): 13.1 ± 2.6 ms | stimulation-induced long-lasting epileptiform discharges, slices showing them (brain slices; 20 Hz stimulation): 3 of 4 | field potential duration (at ⅓ maximal amplitude), 1st stimulus (brain slices; 20 Hz): 6.6 ± 0.8 ms | field potential duration (at ⅓ maximal amplitude), 5th stimulus (brain slices; 20 Hz): 12.9 ± 2.9 ms | field potential amplitude, 1st stimulus (brain slices; [1]): 1.44±0.36 mV | field potential amplitude, 5th stimulus (brain slices; [1]): 0.47±0.09 mV

Source: patent US10668049B2, “Methods of treating cognitive decline with transforming growth factor beta inhibitors” (The Regents of the University of California, priority 2008, dated 2020)
